Structures can show the parent of a compound that is named as a salt. Positions of bridges follow the written chain, without caps; N, C: chain ends. Non-standard residues stand in square brackets, D forms with d. Residues, ends and D or L forms follow the SMILES beside them. NBnAla = C[C@H](NCc1ccccc1)C(=O)O
Columns and labels:
Genome polyprotein [1] = target: T1, Genome polyprotein (dengue virus type 2, UniProt P29990); experiment: Inhibition of DENV2 NS2B-NS3 protease
Genome polyprotein [2] = target: T1, Genome polyprotein; experiment: Binding affinity to DENV2 NS2B/NS3 protease assessed as inhibition constant
dengue virus type 2 = experiment: Antiviral activity against Dengue virus 2 infected in african green monkey Vero cells assessed as reduction in viral titer; format: functional, organism-based
[3] = Binding affinity to wildtype DENV3 protease assessed as inhibition constant using [Ac-[D-EDANS]KRRSWP[K-DABCYL]-AMIDE] as substrate by FRET-based enzymatic assay; design: species or system dengue virus type 3
Genome polyprotein [4] = target: T1, Genome polyprotein; experiment: Inhibition of DENV2 NS2B-NS3 protease using Boc-Gly-Arg-Arg-7-amino-4-methylcoumarin as substrate incubated for 10 mins by fluorometric assay

T1 sequence (P29990 1346-1475 limits assumed): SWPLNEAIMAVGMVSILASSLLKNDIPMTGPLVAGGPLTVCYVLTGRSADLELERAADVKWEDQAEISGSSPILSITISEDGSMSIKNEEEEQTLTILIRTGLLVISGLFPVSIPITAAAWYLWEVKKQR
T1 sequence (P29990 1476-2093 limits assumed): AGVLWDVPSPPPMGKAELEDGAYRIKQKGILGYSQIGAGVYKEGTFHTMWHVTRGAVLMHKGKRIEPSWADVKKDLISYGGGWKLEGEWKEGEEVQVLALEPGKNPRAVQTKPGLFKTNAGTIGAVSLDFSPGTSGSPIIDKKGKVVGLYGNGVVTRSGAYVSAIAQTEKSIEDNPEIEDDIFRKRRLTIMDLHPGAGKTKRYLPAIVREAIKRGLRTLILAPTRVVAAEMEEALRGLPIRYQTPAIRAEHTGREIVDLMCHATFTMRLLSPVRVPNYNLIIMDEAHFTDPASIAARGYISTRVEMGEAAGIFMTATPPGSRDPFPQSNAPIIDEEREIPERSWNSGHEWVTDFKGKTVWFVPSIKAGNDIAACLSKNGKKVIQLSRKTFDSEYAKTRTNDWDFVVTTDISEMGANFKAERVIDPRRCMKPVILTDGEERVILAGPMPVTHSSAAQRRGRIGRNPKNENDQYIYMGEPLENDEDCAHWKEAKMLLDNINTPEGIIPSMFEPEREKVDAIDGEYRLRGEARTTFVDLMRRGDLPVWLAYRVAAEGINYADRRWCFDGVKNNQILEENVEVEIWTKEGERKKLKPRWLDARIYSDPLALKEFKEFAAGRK

CCN1/C(=C/C=C/c2oc3ccc4ccccc4c3[n+]2CC)Oc2ccc3ccccc3c21
IC50 (Genome polyprotein [1]): 27 µM

N=C(N)Nc1ccc(OC(=O)c2ccc(NC(=N)N)cc2)cc1
Ki (Genome polyprotein [1]): 2 µM | Ki (Genome polyprotein [2]): 2 µM

N=C(N)N/N=C/c1ccc(/C=N/NC(=N)N)cc1
Ki (Genome polyprotein [1]): 44 µM | Ki (Genome polyprotein [2]): 44 µM

O=C(O)c1cc2sc(NC(=O)c3ccccc3Sc3ccc(C(F)(F)F)cc3)nc2cc1O
EC50 (dengue virus type 2): 900 nM

CC[C@H](C)[C@@H]1NC(=O)[C@H](CCCNC(=N)N)NC(=O)[C@H](C(C)C)NC(=O)[C@H](CCCNC(=N)N)NC(=O)[C@@H](NC(=O)[C@@H]2CCCN2)CSSC[C@@H](C(=O)N[C@H](C)C(=O)O)NC(=O)CNC(=O)CNC(=O)[C@H](CC(=O)O)NC1=O
Ki [3]: 35.8 µM

O=C(Nc1nc2ccc([N+](=O)[O-])cc2s1)c1ccccc1Sc1ccc(C(F)(F)F)cc1
IC50 (Genome polyprotein [4]): 22 µM | EC50 (dengue virus type 2): 100 nM

CC[C@H](C)[C@@H]1NC(=O)[C@H](CCCNC(=N)N)NC(=O)[C@H](C)NC(=O)[C@H](CCCNC(=N)N)NC(=O)[C@@H](NC(=O)[C@@H]2CCCN2)CSSC[C@@H](C(=O)N[C@H](C)C(=O)O)NC(=O)CNC(=O)CNC(=O)[C@H](CC(=O)O)NC1=O
Ki [3]: 69.3 µM

COc1cc2nc(NC(=O)c3ccccc3Sc3ccc(C(F)(F)F)cc3)sc2cc1OC
EC50 (dengue virus type 2): 2500 nM

CC[C@H](C)[C@@H]1NC(=O)[C@H](CCCNC(=N)N)NC(=O)[C@H](C(C)C)NC(=O)[C@H](CCCNC(=N)N)NC(=O)[C@@H](NC(=O)[C@@H]2CCCN2)CSSC[C@@H](C(=O)N[C@H](C)C(=O)O)NC(=O)CNC(=O)CNC(=O)[C@H](Cc2ccc(O)cc2)NC1=O
Ki [3]: 25.6 µM

O=C(Nc1nc2ccc([N+](=O)[O-])cc2s1)c1ccccc1Sc1ccc([N+](=O)[O-])cc1
IC50 (Genome polyprotein [4]): 34 µM

CC[C@H](C)[C@@H]1NC(=O)[C@H](Cc2c[nH]c3ccccc23)NC(=O)[C@H](C)NC(=O)[C@H](CCCNC(=N)N)NC(=O)[C@@H](NC(=O)[C@@H]2CCCN2)CSSC[C@@H](C(=O)N[C@H](C)C(=O)O)NC(=O)CNC(=O)CNC(=O)[C@H](Cc2ccc(O)cc2)NC1=O
Ki [3]: 145 µM

O=C(Nc1nc2ccc([N+](=O)[O-])cc2s1)c1cccc(Sc2ccc([N+](=O)[O-])cc2)c1
IC50 (Genome polyprotein [4]): 26 µM | EC50 (dengue virus type 2): 300 nM

O=[N+]([O-])c1ccc(N=Nc2ccc(O)c3ccccc23)c([N+](=O)[O-])c1
Ki (Genome polyprotein [1]): 15 µM | Ki (Genome polyprotein [2]): 15 µM

CC[C@H](C)[C@@H]1NC(=O)[C@H](Cc2c[nH]c3ccccc23)NC(=O)[C@H](C)NC(=O)[C@H](CCCNC(=N)N)NC(=O)[C@@H](NC(=O)[C@@H]2CCCN2)CSSC[C@@H](C(=O)N[C@H](CCCNC(=N)N)C(=O)O)NC(=O)CNC(=O)CNC(=O)[C@H](Cc2ccc(O)cc2)NC1=O
Ki [3]: 19.7 µM

CC[C@H](C)[C@@H]1NC(=O)[C@H](CCCNC(=N)N)NC(=O)[C@H](C)NC(=O)[C@H](CCCNC(=N)N)NC(=O)[C@@H](NC(=O)c2ccccc2)CSSC[C@@H](C(=O)N[C@H](C)C(=O)O)NC(=O)CNC(=O)CNC(=O)[C@H](Cc2ccc(O)cc2)NC1=O
Ki [3]: 33.2 µM

N=C(N)NCCC[C@@H]1NC(=O)[C@H](CCCCN)NC(=O)CNC(=O)[C@@H](N)CSSC[C@@H](C(=O)O)NC(=O)[C@H](CO)NC(=O)[C@H](CCCCN)NC1=O (H-CGKRKSC-OH; disulfide 1-7)
Ki (Genome polyprotein [1]): 1.4 µM | Ki (Genome polyprotein [2]): 1.4 µM

CC[C@H](C)[C@@H]1NC(=O)[C@H](CCCNC(=N)N)NC(=O)[C@H](C)NC(=O)[C@H](CCCNC(=N)N)NC(=O)[C@@H](N)CSSC[C@@H](C(=O)N[C@@H](C)C(=O)O)NC(=O)CNC(=O)CNC(=O)[C@H](Cc2ccc(O)cc2)NC(=O)CNC1=O (H-CRARIGYGGCA-OH; disulfide 1-10)
Ki [3]: 145 µM

CC[C@H](C)[C@@H]1NC(=O)[C@H](CCCNC(=N)N)NC(=O)[C@H](C)NC(=O)[C@H](CCCCN)NC(=O)[C@@H](NC(=O)[C@@H]2CCCN2)CSSC[C@@H](C(=O)N[C@@H](C)C(=O)O)NC(=O)CNC(=O)CNC(=O)[C@H](Cc2ccc(O)cc2)NC(=O)CNC1=O (H-PCKARIGYGGCA-OH; disulfide 2-11)
Ki [3]: 377 µM

CC[C@H](C)[C@@H]1NC(=O)[C@H](CCCNC(=N)N)NC(=O)[C@H](C)NC(=O)[C@H](CCCCN)NC(=O)[C@@H](NC(=O)[C@@H]2CCCN2)CSSC[C@@H](C(=O)N[C@@H](C)C(=O)O)NC(=O)CNC(=O)CNC(=O)[C@H](Cc2ccc(O)cc2)NC(=O)CNC(=O)CNC(=O)[C@H]([C@@H](C)CC)NC1=O (H-PCKARIIGGYGGCA-OH; disulfide 2-13)
Ki [3]: 678 µM

CC[C@H](C)[C@@H]1NC(=O)[C@H](CCCNC(=N)N)NC(=O)[C@H](C)NC(=O)[C@H](CCCCN)NC(=O)[C@@H](NC(=O)[C@@H]2CCCN2)CSSC[C@@H](C(=O)N[C@@H](CCCNC(=N)N)C(=O)O)NC(=O)CNC(=O)CNC(=O)[C@H](Cc2ccc(O)cc2)NC(=O)CNC(=O)CNC(=O)[C@H]([C@@H](C)CC)NC1=O (H-PCKARIIGGYGGCR-OH; disulfide 2-13)
Ki [3]: 232 µM

CC[C@H](C)[C@@H]1NC(=O)[C@H](CCCNC(=N)N)NC(=O)[C@H](C)NC(=O)[C@H](CCCCN)NC(=O)[C@@H](NC(=O)[C@@H]2CCCN2)CSSC[C@@H](C(=O)N[C@@H](C)C(=O)O)NC(=O)CNC(=O)CNC(=O)[C@H](Cc2ccc(O)cc2)NC1=O (H-PCKARIYGGCA-OH; disulfide 2-10)
Ki [3]: 14.5 µM

CC[C@H](C)[C@@H]1NC(=O)[C@H](CCCNC(=N)N)NC(=O)[C@H](C)NC(=O)[C@H](CCCNC(=N)N)NC(=O)[C@@H](NC(=O)[C@@H]2CCCN2)CSSC[C@@H](C(=O)N[C@@H](C)C(=O)O)NC(=O)CNC1=O (H-PCRARIGCA-OH; disulfide 2-8)
Ki [3]: 101 µM

CC[C@H](C)[C@@H]1NC(=O)[C@H](CCCNC(=N)N)NC(=O)[C@H](C)NC(=O)[C@H](CCCNC(=N)N)NC(=O)[C@@H](NC(=O)[C@@H]2CCCN2)CSSC[C@@H](C(=O)N[C@@H](C)C(=O)O)NC(=O)CNC(=O)CNC1=O (H-PCRARIGGCA-OH; disulfide 2-9)
Ki [3]: 780 µM

CC[C@H](C)[C@@H]1NC(=O)[C@H](CCCNC(=N)N)NC(=O)[C@H](C)NC(=O)[C@H](CCCNC(=N)N)NC(=O)[C@@H](NC(=O)[C@@H]2CCCN2)CSSC[C@@H](C(=O)N[C@@H](CCCNC(=N)N)C(=O)O)NC(=O)CNC(=O)CNC1=O (H-PCRARIGGCR-OH; disulfide 2-9)
Ki [3]: 29.7 µM

CC[C@H](C)[C@@H]1NC(=O)[C@H](CCCNC(=N)N)NC(=O)[C@H](C)NC(=O)[C@H](CCCNC(=N)N)NC(=O)[C@@H](NC(=O)[C@@H]2CCCN2)CSSC[C@@H](C(=O)N[C@@H](C)C(=O)O)NC(=O)CNC(=O)[C@H](Cc2ccc(O)cc2)NC1=O (H-PCRARIYGCA-OH; disulfide 2-9)
Ki [3]: 468 µM

CC[C@H](C)[C@@H]1NC(=O)[C@H](CCCNC(=N)N)NC(=O)[C@H](C)NC(=O)[C@H](CCCNC(=N)N)NC(=O)[C@@H](NC(=O)[C@@H]2CCCN2)CSSC[C@@H](C(=O)N[C@@H](C)C(=O)O)NC(=O)CNC(=O)CNC(=O)[C@H](Cc2ccc(O)cc2)NC1=O (H-PCRARIYGGCA-OH; disulfide 2-10)
Ki [3]: 966 µM

C[C@H](NCc1ccccc1)C(=O)N[C@@H](CCCCN)C(=O)N[C@@H](CCCNC(=N)N)C(=O)N[C@@H](CCCNC(=N)N)C(=O)O (H-[NBnAla]KRR-OH)
Ki (Genome polyprotein [1]): 5.3 µM | Ki (Genome polyprotein [2]): 5.3 µM

CCCCC(CC)CN=C(N)N=C(N)NCCCCCCNC(N)=NC(N)=NCC(CC)CCCC (stereo not drawn) [ALEXIDINE HYDROCHLORIDE]
Ki (Genome polyprotein [1]): 41 µM

CO[C@H]1C[C@H](O[C@@H]2/C(C)=C/C[C@@H]3C[C@@H](C[C@]4(CC[C@H](C)[C@@H](C5CCCCC5)O4)O3)OC(=O)[C@@H]3C=C(C)/C(=N/O)[C@H]4OC/C(=C\C=C\[C@@H]2C)[C@]43O)O[C@@H](C)[C@@H]1O [SELAMECTIN]
Ki (Genome polyprotein [2]): 63 µM

IVERMECTIN
Ki (Genome polyprotein [1]): 79 µM | Ki (Genome polyprotein [2]): 79 µM

Source: ChEMBL document CHEMBL5096200, “A short survey of dengue protease inhibitor development in the past 6 years (2015-2020) with an emphasis on similarities between DENV and SARS-CoV-2 proteases” (Bioorg Med Chem, 2021)
